Data as given in patent US20110117168A1, “METHODS AND COMPOSITIONS FOR SOFT TISSUE REPAIR” (AFFINERGY, INC., priority 2009, published 2011).
Ends that are not written are not given here. spacer = not defined here

Key:
human MSCs = assay: Capture of MSCs from a mixed cell population with peptide on CELLECTION magnetic beads; type: cell-based; conditions: starting mixture 38% IM9, 56% U937, 4% MSC
Excerpt: In this experiment, biotinylated cell binding peptide, SEQ ID NO: 16, was attached to CELLECTION magnetic beads. The CELLECTION beads have streptavidin coupled to a magnetic particle through a DNA linker. Three different cell types, human MSCs, IM-9, and U937 cells were differentially labeled with […] dye and mixed in a ratio such that the MSCs represented ˜4% of the starting cell mixture (the percentage of each cell type in the starting mixture was 38% IM9, 56% U937, and 4% MSC). The cell binding peptide, SEQ ID NO: 16, was biotinylated as described herein at Example 2, as was a general cell binding peptide for use as a control peptide in the experiment. Magnetic particles with no peptide attached, as well as magnetic beads having attached either the cell binding peptide, SEQ ID NO: 16, or the control peptide were tested for their ability to capture human MSCs. The starting cell mixture was incubated with magnetic beads having either attached peptide or no peptide, the beads were washed, and the captured cells were released from the beads by DNase treatment. The cells were measured by flow cytometry histograms shown in 18A-18C. The magnetic beads without peptide captured little or no cells (FIG. 18B). The magnetic beads with attached cell binding peptide SEQ ID NO: 16 captured a cell population that was 96% MSCs (FIG. 18C).

HUVECs [1] = assay: HUVEC colonization and proliferation on peptide-modified collagen; type: cell-based, human; conditions: 7,000 HUVECs, 48 hours at 37° C.
Method: In 96-well plates 7,000 HUVECs were plated on peptide-modified soluble collagen or unmodified collagen for 48 hours at 37° C. Plates were removed and washed and the remaining attached cells were detected using […]-GLO on a luminometer.

HUVECs [2] = assay: Retention of HUVECs under shear stress on collagen-coated cover-slips; type: cell-based, human
Method: The ability of the collagen modified with endothelial cell binding peptide SEQ ID NO: 4 to retain HUVECs under shear stress was analyzed as follows. Glass cover-slips were coated with peptide conjugated collagen or unmodified collagen and seeded with HUVECs. Coverslips were secured in a polycarbonate slide with six 1 cm diameter wells enabling simultaneous testing of materials. A closed loop peristaltic pump was used to expose the samples to flow conditions for 30 minutes at laminar flow rates up to 12 dynes/cm^2 in PBS containing 2% FBS. The number of cells retained on the cover slip was determined using […]-GLO (INVITROGEN) and a luminometer.

human dermal fibroblasts = assay: Fibroblast binding to peptide-modified collagen coated plates ([…]-GLO); type: cell-based
Method: The experiment was performed according to the following procedure. Cell-binding peptide (SEQ ID NO: 4) was covalently attached to soluble collagen as described herein at Example 7. 96-well plates were coated with various amounts of unmodified or the peptide-modified collagen (177 μmol peptide/g collagen) over night at 4° C. Unbound collagen was removed and the plates were blocked for 1 h. After washing, 5,000 human dermal fibroblasts were added per well in serum-free medium for 30 min at 37° C. The plates were washed, and bound cells were detected with […]-GLO (PROMEGA) using a luminometer. At 0.0025 μg collagen, fibroblast binding was increased 11-fold for the peptide-modified collagen compared to unmodified collagen (see FIG. 28).

HUVECs [3] = assay: HUVEC capture and retention on peptide-modified collagen coated 96-well plates ([…]-GLO); type: cell-based, human
Method: After washing, 10,000 HUVECs were added per well in serum free medium for 30 min at 37° C. The plates were washed 3 times with PBS containing 2% FBS, and captured cells were detected with […]-GLO (INVITROGEN) using a luminometer and a standard curve. […] For FIG. 21B, the collagen was extracted in gel loading buffer, separated by PAGE, and total protein was stained with SIMPLYBLUE (INVITROGEN). […] Plates with captured HUVECs were prepared as described in FIG. 20A. […]

HUVECs [4] = assay: Endothelial cell phenotype and anti-thrombogenic protein expression on peptide-modified collagen; type: cell-based, human; conditions: HUVECs cultured 24 hours; t-PA and 6-keto Prostaglandin F1a ELISA, flow cytometry
Method: Once immobilized on a vascular graft, endothelial cells must retain their characteristic properties of promoting endothelialization. Therefore, the phenotype, viability, and anti-thrombogenic protein expression profiles were evaluated for endothelial cells in the presence of collagen modified with the endothelial cell binding peptide SEQ ID NO: 4 (generated according to Example 7 using BS^3 reagent). […] Specifically, HUVECs were plated on SEQ ID NO: 4 peptide-modified collagen, collagen with 10 μM free SEQ ID NO: 4 peptide or collagen alone for 24 hours. Flow cytometry was performed using a BD […], and ELISAs were performed according to manufacturers instructions. (FIGS. 22A & 22B). Tissue-type Plasminogen Activator (t-PA) and 6-keto Prostaglandin F1a protein expression levels secreted in this assay are aligned with other reports on cultured HUVECS (Kimura and Yokoi-Hayashi, Biochim Biophys Acta, 1996, 1310:1-4; Merhi-Soussi et al., J Leukoc Biol, 2000, 68:881-9).

ECFCs = assay: Capture of ECFCs in flow on collagen-coated coverslips (parallel plate flow chamber); type: cell-based, human; conditions: 2×10^6 ECFC circulated for 2 h at 37° C.
Method: The ability of the collagen modified with endothelial cell binding peptide SEQ ID NO: 4 to capture ECFCs in flow was analyzed as follows. Glass coverslips were coated with unmodified collagen or cell binding peptide modified-collagen and mounted in a polycarbonate parallel plate flow chamber. PBS/10% FBS was circulated through a closed 150 ml system to block the coverslips. Approximately 2×10^6 ECFC were injected into the system and were circulated for 2 h at 37° C. Coverslips were washed in PBS to remove loosely adhering cells, the remaining cells on the coverslips were lysed in CELLTITERGLO (INVITROGEN, CA), and the cells enumerated by luminescence against a standard curve.

fibroblast binding increase compared to unmodified collagen (human dermal fibroblasts; 0.0025 μg collagen, 5,000 human dermal fibroblasts, 30 min at 37° C.) [fold]	fibroblast binding at higher concentrations of collagen (human dermal fibroblasts; data not shown)	Substance	MSCs in captured cell population (human MSCs) [%]	HUVEC colonization and proliferation versus unmodified collagen (HUVECs [1])	cells captured versus unmodified collagen (HUVECs [2]; HUVECs, 30 minutes, laminar flow up to 12 dynes/cm^2)	effect of shear stress on cell capture (HUVECs [2]; laminar flow up to 12 dynes/cm^2, 30 minutes)	HUVECs retained versus unmodified collagen after agitation (HUVECs [3]; 1 hour with agitation in PBS containing 2% FBS) [fold]	increase in cell retention over unmodified collagen (HUVECs [3]; 10,000 HUVECs per well, serum free medium, 30 min at 37° C.) [fold]	endothelial cell phenotype and anti-thrombogenic protein secretion (HUVECs [4])	cells captured in flow versus unmodified collagen (ECFCs)
		SSFRFGPLGTWNYPSTDNAE (also: biotin (position not given here)) [SEQ ID NO: 16, tested biotinylated]	96							
11	Increased cell binding	peptide-modified collagen: soluble bovine type I collagen with SEQ ID NO: 4 covalently attached via BS^3 crosslinking reagent (SSFWDVCQGDGTCYGGGSR-{spacer-Lys}; cysteine pairing not given here; reading uncertain; also: conjugated to soluble bovine type I collagen via BS3 (site not given here))		colonize and proliferate equally	about 3 fold	did not significantly affect cell capture	7	3	maintained their endothelial cell phenotype and their ability to secrete anti-thrombogenic proteins	about 20 fold
